Results from patent US8741934B2, “Inhibitors of ion channels” (Pfizer Limited, priority 2007, dated 2014).

Biological target: T1, hSCN3A sodium channels (Homo sapiens, UniProt Q9NY46)
T1 construct: expressed in transfected cells
Assay: hSCN3A electrophysiology, Ionworks Quattro automated platform (Table C)
Assay type: cell-based
Conditions: for inhibition at 3 µM: read-out: SCN3A % INHIB HTS IWQ 3 μM; for inhibition at 10 µM: read-out: SCN3A % INHIB HTS IWQ 10 μM; for SCN3A INHIB INACT DRC EP IWQ EMAX: Emax of dose-response curve, inactivated state; for IC50: read-out: SCN3A IWQ IC-50
Method: Human Embryonic Kidney (HEK) cells were transfected with an hSCN3A construct using lipofectamine reagent (Invitrogen), using standard techniques. […] Clones were screened for expression using the whole-cell voltage-clamp technique.
HEK cells stably transfected with hSCN3A were maintained in DMEM medium supplemented with 10% heat-inactivated fetal bovine serum and 400 μg/ml G418 sulfate in an incubator at 37° C. with a humidified atmosphere of 10% CO2. […] For electrophysiological studies, cells were removed from the culture flask by brief trypsinization and replated at low density onto glass cover slips. Cells were typically used for electrophysiological experiments within 24 to 72 h after plating.
Electrophysiological assays were also conducted using the Ionworks Quattro automated electrophysiological platform (Molecular Devices Corp) (Table C). Intracellular and extracellular solutions were as described above with the following changes, 100 μg/ml amphotericin was added to the intracellular solution to perforate the membrane and allow electrical access to the cells. hSCN3A cells were grown and harvested as for PatchXpress and cells were resuspended in extracellular solution at a concentration of 3-4×10^6 cells/ml. The onboard liquid handling facility of the Ionworks Quattro was used for dispensing cells and application of test compounds. A voltage protocol was then applied that comprised of a voltage step to fully inactivate the sodium channels, followed by a brief hyperpolarized recovery period to allow partial recovery from inactivation for unblocked sodium channels, followed by a test depolarized voltage step to assess magnitude of inhibition by test compound. Compound effect was determined based on current amplitude difference between the pre-compound addition and post-compound addition scans.

T1 sequence (Q9NY46 whole entry): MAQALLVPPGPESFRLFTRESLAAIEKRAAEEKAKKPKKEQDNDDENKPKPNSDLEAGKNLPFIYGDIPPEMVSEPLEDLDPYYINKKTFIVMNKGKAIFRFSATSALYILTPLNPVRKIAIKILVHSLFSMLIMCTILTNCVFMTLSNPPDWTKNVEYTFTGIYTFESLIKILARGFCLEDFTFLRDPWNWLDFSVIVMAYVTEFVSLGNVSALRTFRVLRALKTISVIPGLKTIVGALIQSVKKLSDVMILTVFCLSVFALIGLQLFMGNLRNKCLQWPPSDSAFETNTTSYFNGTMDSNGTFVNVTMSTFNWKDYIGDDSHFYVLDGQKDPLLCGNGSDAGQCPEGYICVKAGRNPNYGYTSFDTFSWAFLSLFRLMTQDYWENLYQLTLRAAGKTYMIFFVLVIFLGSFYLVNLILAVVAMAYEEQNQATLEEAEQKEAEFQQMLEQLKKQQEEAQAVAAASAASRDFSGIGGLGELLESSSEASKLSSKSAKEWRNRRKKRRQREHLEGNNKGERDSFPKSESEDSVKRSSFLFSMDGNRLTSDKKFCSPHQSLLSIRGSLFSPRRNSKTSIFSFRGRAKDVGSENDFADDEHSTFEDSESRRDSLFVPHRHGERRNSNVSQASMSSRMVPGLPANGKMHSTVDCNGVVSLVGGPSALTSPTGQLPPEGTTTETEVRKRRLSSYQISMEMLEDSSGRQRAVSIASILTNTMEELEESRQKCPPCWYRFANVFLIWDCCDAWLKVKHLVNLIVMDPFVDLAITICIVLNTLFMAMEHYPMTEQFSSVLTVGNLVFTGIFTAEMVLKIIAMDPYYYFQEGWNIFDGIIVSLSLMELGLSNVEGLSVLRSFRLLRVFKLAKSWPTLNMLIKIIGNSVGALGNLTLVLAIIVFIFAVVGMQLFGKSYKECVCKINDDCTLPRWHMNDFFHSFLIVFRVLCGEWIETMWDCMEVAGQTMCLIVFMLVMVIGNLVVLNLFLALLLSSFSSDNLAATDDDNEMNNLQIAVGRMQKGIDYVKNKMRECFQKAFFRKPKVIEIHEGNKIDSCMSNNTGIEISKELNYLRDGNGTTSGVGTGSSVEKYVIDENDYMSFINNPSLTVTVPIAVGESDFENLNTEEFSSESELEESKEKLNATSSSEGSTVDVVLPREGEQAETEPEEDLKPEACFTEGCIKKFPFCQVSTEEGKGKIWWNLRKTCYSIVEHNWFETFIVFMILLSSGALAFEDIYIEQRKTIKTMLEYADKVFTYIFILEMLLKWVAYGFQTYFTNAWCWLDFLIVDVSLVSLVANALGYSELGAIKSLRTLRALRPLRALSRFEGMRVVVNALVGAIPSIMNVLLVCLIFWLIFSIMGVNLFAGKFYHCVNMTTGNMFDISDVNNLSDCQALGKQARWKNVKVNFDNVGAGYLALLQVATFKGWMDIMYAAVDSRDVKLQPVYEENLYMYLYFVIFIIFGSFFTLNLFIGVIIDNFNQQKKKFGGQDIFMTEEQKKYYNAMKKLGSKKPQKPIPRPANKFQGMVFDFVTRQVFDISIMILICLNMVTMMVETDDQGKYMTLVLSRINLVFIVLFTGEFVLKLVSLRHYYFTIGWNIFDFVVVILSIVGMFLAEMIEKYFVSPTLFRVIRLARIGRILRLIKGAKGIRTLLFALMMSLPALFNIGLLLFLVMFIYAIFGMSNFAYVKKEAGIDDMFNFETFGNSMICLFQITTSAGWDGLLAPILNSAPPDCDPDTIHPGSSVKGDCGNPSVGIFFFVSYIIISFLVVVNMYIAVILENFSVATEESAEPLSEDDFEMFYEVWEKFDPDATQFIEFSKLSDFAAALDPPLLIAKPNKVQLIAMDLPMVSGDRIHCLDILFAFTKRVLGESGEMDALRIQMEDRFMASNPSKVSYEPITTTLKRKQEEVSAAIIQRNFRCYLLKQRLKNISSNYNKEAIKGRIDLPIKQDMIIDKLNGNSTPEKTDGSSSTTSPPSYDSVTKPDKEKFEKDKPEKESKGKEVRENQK

`Cc1cccc(C2(C)CN(C(=O)c3ccc(S(=O)(=O)Nc4nccs4)cc3)CCO2)c1` (stereo not shown) [Example 189, 4-{[2-Methyl-2-(3-methylphenyl)morpholin-4-yl]carbonyl}-N-1,3-thiazol-2-yl-benzenesulfonamide] showed an inhibition at 3 µM (3 μM compound) of 25.3% and an inhibition at 10 µM (10 μM compound) of 21%.

`O=C(c1ccc(S(=O)(=O)Nc2nccs2)cc1)N1CCCCC1CCn1cccn1` (stereo not shown) [Example 190, 4-({2-[2-(1H-pyrazol-1-yl)ethyl]piperidin-1-yl}carbonyl)-N-1,3-thiazol-2-yl-benzenesulfonamide] was tested, and the inhibition at 3 µM (3 μM compound) was 2.77% and the inhibition at 10 µM (10 μM compound) was -8.21%.

`O=C1[C@@H]2CC[C@@H]3[C@H]1C(c1ccccc1)N(C(=O)c1ccc(S(=O)(=O)Nc4nccs4)cc1)[C@H]3C2` (stereo partly drawn) [Example 192, 4-{[(3S,3aR,6R,7aS)-8-oxo-2-phenyloctahydro-1H-3,6-methanoindol-1-yl]carbonyl}-N-1,3-thiazol-2-yl-benzenesulfonamide] was tested, and the inhibition at 3 µM (3 μM compound) was 6.18% and the inhibition at 10 µM (10 μM compound) was 26%.

With `O=C(c1ccc(S(=O)(=O)Nc2nccs2)cc1)N1CCCC1Cc1ccccc1` (stereo not shown) [Example 197, 4-[(2-Benzylpyrrolidin-1-yl)carbonyl]-N-1,3-thiazol-2-yl-benzenesulfonamide] the inhibition at 3 µM (3 μM compound) was 17.6% and the inhibition at 10 µM (10 μM compound) was 17.4%.

`COc1ccc(CC2COCCN(C(=O)c3ccc(S(=O)(=O)Nc4nccs4)cc3)C2)cc1F` (stereo not shown) [Example 199, 4-{[6-(3-Fluoro-4-methoxybenzyl)-1,4-oxazepan-4-yl]carbonyl}-N-1,3-thiazol-2-yl-benzenesulfonamide] gave an inhibition at 3 µM (3 μM compound) of 10.2% and an inhibition at 10 µM (10 μM compound) of 7.42%.

With `COc1cccc(C2CCCCN2C(=O)c2ccc(S(=O)(=O)Nc3nccs3)cc2)c1` (stereo not shown) [Example 201, 4-{[2-(3-Methoxyphenyl)piperidin-1-yl]carbonyl}-N-1,3-thiazol-2-yl-benzenesulfonamide] the inhibition at 3 µM (3 μM compound) was 13.7% and the inhibition at 10 µM (10 μM compound) was -0.98%.

`Cc1ccc(C)c(C2CCCN2C(=O)c2ccc(S(=O)(=O)Nc3nccs3)cc2)c1` (stereo not shown) [Example 202, 4-{[2-(2,5-Dimethylphenyl)pyrrolidin-1-yl]carbonyl}-N-1,3-thiazol-2-yl-benzenesulfonamide] showed an inhibition at 3 µM (3 μM compound) of 15.8% and an inhibition at 10 µM (10 μM compound) of 13.7%.

In the case of `COc1ccc(OC2CCCN(C(=O)c3ccc(S(=O)(=O)Nc4nccs4)cc3)C2)cc1` (stereo not shown) [Example 203, 4-{[3-(4-Methoxyphenoxy)piperidin-1-yl]carbonyl}-N-1,3-thiazol-2-yl-benzenesulfonamide], the inhibition at 3 µM (3 μM compound) is reported as 13.1% and the inhibition at 10 µM (10 μM compound) is reported as 17.7%.

Compound `Cc1ccccc1O[C@@H]1CCN(C(=O)c2ccc(S(=O)(=O)Nc3nccs3)cc2)C1` [Example 204, 4-{[(3R)-3-(2-methylphenoxy)pyrrolidin-1-yl]carbonyl}-N-1,3-thiazol-2-yl-benzenesulfonamide] has an inhibition at 3 µM (3 μM compound) of 18.1% and an inhibition at 10 µM (10 μM compound) of 16.2%.

Compound `O=C(c1ccc(S(=O)(=O)Nc2nccs2)cc1)N1CCCC1c1ccccc1` (stereo not shown) [Example 205, 4-[(2-Phenylpyrrolidin-1-yl)carbonyl]-N-1,3-thiazol-2-yl-benzenesulfonamide] has an inhibition at 3 µM (3 μM compound) of 11.3% and an inhibition at 10 µM (10 μM compound) of 27.3%.

For `COc1ccc(CC2CCCN2C(=O)c2ccc(S(=O)(=O)Nc3nccs3)cc2)cc1` (stereo not shown) [Example 206, 4-{[2-(4-Methoxybenzyl)pyrrolidin-1-yl]carbonyl}-N-1,3-thiazol-2-yl-benzenesulfonamide], the inhibition at 3 µM (3 μM compound) was 4.17% and the inhibition at 10 µM (10 μM compound) was 16.7%.

For `Cc1ccc(C2CCCCN2C(=O)c2ccc(S(=O)(=O)Nc3nccs3)cc2)cc1` (stereo not drawn) [Example 207, 4-{[2-(4-Methylphenyl)piperidin-l-yl]carbonyl}-N-1,3-thiazol-2-yl-benzenesulfonamide], the “SCN3A % INHIB HTS IWQ 3 μM” value (3 μM compound) was 27.25% and the “SCN3A % INHIB HTS IWQ 10 μM” value (10 μM compound) was −16.86%.

With `O=C(c1ccc(S(=O)(=O)Nc2nccs2)cc1)N(Cc1ccccc1)[C@@H](CO)c1ccccc1` [Example 208, N-benzyl-N-[(1R)-2-hydroxy-1-phenylethyl]-4-[(1,3-thiazol-2-yl-amino)sulfonyl]benzamide] the inhibition at 3 µM (3 μM compound) was 3.57% and the inhibition at 10 µM (10 μM compound) was -14.2%.

With `CCN(C(=O)c1ccc(S(=O)(=O)Nc2nccs2)cc1)C(C)C(=O)c1ccccc1` (stereo not shown) [Example 209, N-ethyl-N-(1-methyl-2-oxo-2-phenylethyl)-4-[(1,3-thiazol-2-yl-amino)sulfonyl]benzamide] the inhibition at 3 µM (3 μM compound) was 5.72% and the inhibition at 10 µM (10 μM compound) was -5.23%.

For `O=C(c1ccc(S(=O)(=O)Nc2nccs2)cc1)N1CCOC(CN2Cc3ccccc3C2=O)C1` (stereo not shown) [Example 210, 4-({2-[(1-Oxo-1,3-dihydro-2H-isoindol-2-yl)methyl]morpholin-4-yl}carbonyl)-N-1,3-thiazol-2-ylbenzenesulfonamide], the inhibition at 3 µM (3 μM compound) was 4.03% and the inhibition at 10 µM (10 μM compound) was 11.9%.

In the case of `O=C(c1ccc(S(=O)(=O)Nc2nccs2)cc1)N1CCCC(OCc2ccccc2)C1` (stereo not shown) [Example 211, 4-{[3-(benzyloxy)piperidin-1-yl]carbonyl}-N-1,3-thiazol-2-yl-benzenesulfonamide], the inhibition at 3 µM (3 μM compound) is reported as 2.5% and the inhibition at 10 µM (10 μM compound) is reported as 10.1%.

With `Cc1nccc(C2CCCN2C(=O)c2ccc(S(=O)(=O)Nc3nccs3)cc2)n1` (stereo not shown) [Example 212, 4-{[2-(2-Methylpyrimidin-4-yl)pyrrolidin-1-yl]carbonyl}-N-1,3-thiazol-2-yl-benzenesulfonamide] the inhibition at 3 µM (3 μM compound) was 14.7% and the inhibition at 10 µM (10 μM compound) was -8.45%.

For `O=C(c1ccc(S(=O)(=O)Nc2nccs2)cc1)N(Cc1ccccc1)[C@@H]1CCCC[C@H]1O` [Example 213, N-benzyl-N-[(1R,2R)-2-hydroxycyclohexyl]-4-[(1,3-thiazol-2-yl-amino)sulfonyl]benzamide], the inhibition at 3 µM (3 μM compound) was -0.67% and the inhibition at 10 µM (10 μM compound) was 1.51%.

`O=C(c1ccc(S(=O)(=O)Nc2nccs2)cc1)N1CCCO[C@H]1Cc1ccccc1` [Example 214, 4-{[(2S)-2-benzyl-1,3-oxazinan-3-yl]carbonyl}-N-1,3-thiazol-2-yl-benzenesulfonamide] was tested, and the inhibition at 3 µM (3 μM compound) was 9.25% and the inhibition at 10 µM (10 μM compound) was 4.51%.

For `O=C(c1ccc(S(=O)(=O)Nc2nccs2)cc1)N1CCCC1c1ccccc1Cl` (stereo not shown) [Example 215, 4-{[2-(2-Chlorophenyl)pyrrolidin-1-yl]carbonyl}-N-1,3-thiazol-2-yl-benzenesulfonamide], the inhibition at 3 µM (3 μM compound) was 30.5%, the inhibition at 10 µM (10 μM compound) was 51.9% and the “SCN3A INHIB INACT DRC EP IWQ EMAX” value was 64.7. It also gave an IC50 of 8.41 µM.

`O=C(c1ccc(S(=O)(=O)Nc2nccs2)cc1)N1CCOCC(Cc2ccc(F)cn2)C1` (stereo not shown) [Example 216, 4-({6-[(5-Fluoropyridin-2-yl)methyl]-1,4-oxazepan-4-yl}carbonyl)-N-1,3-thiazol-2-yl-benzenesulfonamide] gave an inhibition at 3 µM (3 μM compound) of 10.8% and an inhibition at 10 µM (10 μM compound) of 6.67%.

`CCN(C(=O)c1ccc(S(=O)(=O)Nc2nccs2)cc1)[C@H](CO)c1ccccc1` [Example 219, N-ethyl-N-[(1S)-2-hydroxy-1-phenylethyl]-4-[(1,3-thiazol-2-yl-amino)sulfonyl]benzamide] showed an inhibition at 3 µM (3 μM compound) of 13.1% and an inhibition at 10 µM (10 μM compound) of 1.08%.

For `O=C(c1ccc(S(=O)(=O)Nc2nccs2)cc1)N1CCCCC1c1cccc(F)c1` (stereo not shown) [Example 221, 4-{[2-(3-Fluorophenyl)piperidin-1-yl]carbonyl}-N-1,3-thiazol-2-yl-benzenesulfonamide], the inhibition at 3 µM (3 μM compound) was 19.9% and the inhibition at 10 µM (10 μM compound) was 21.8%.

For `O=C(c1ccc(S(=O)(=O)Nc2nccs2)cc1)N1CCSCC1c1ccc(F)cc1` (stereo not shown) [Example 223, 4-{[3-(4-Fluorophenyl)thiomorpholin-4-yl]carbonyl}-N-1,3-thiazol-2-yl-benzenesulfonamide], the inhibition at 3 µM (3 μM compound) was 36.9%, the inhibition at 10 µM (10 μM compound) was 47.5% and the “SCN3A INHIB INACT DRC EP IWQ EMAX” value was 46.3. It also gave an IC50 of 33 µM.
